From ChEMBL document CHEMBL5584329, “Development of new dehydrocostuslactone derivatives for treatment of atopic dermatitis via inhibition of the NF-κB signaling pathway” (RSC Med Chem, 2024)
pIC50: −log10 of the molar value. The source made the active and inactive calls. No cut-off for these calls is given here.

Tests used:
[1] = system: RAW264.7; test: Inhibition of LPS-induced NO production in mouse RAW264.7 cells at 20 uM preincubated for 2 hrs followed by LPS addition and measured after 24 hrs by Griess assay relative to control; type: functional; conditions: time 26 hrs
[2] = Cytotoxicity against mouse RAW264.7 cells assessed as inhibition of cell viability at 20 uM by MTT assay relative to control; type: toxicity, cell-based; conditions: read-out: INH
[3] = system: RAW264.7; test: Inhibition of LPS-induced NO production in mouse RAW264.7 cells preincubated for 2 hrs followed by LPS addition and measured after 24 hrs by Griess assay relative to control; type: functional, cell-based
[4] = Cytotoxicity against mouse RAW264.7 cells assessed as inhibition of cell viability by MTT assay relative to control; type: toxicity, cell-based
[5] = biological target: MAP kinase p38 (Mus musculus) (UniProt P47811+O08911+Q9WUI1+Q9Z1B7); test: Inhibition of P38 phosphorylation in LPS-induced mouse RAW264.7 cells preincubated for 2 hrs followed by LPS addition and measured after 24 hrs by Western blot analysis; type: cell-based; conditions: dose 2.5-10 µmol, time 26.0 hrs
[6] = biological target: T1, Inhibitor of nuclear factor kappa-B kinase subunit alpha (Mus musculus) (UniProt Q60680); test: Inhibition of IkappaB-alpha phosphorylation in LPS induced mouse RAW264.7 cells preincubated for 2 hrs followed by LPS addition and measured after 24 hrs by Western blot analysis; type: cell-based; conditions: dose 2.5-10 µmol, time 26.0 hrs
T1 sequence (whole entry): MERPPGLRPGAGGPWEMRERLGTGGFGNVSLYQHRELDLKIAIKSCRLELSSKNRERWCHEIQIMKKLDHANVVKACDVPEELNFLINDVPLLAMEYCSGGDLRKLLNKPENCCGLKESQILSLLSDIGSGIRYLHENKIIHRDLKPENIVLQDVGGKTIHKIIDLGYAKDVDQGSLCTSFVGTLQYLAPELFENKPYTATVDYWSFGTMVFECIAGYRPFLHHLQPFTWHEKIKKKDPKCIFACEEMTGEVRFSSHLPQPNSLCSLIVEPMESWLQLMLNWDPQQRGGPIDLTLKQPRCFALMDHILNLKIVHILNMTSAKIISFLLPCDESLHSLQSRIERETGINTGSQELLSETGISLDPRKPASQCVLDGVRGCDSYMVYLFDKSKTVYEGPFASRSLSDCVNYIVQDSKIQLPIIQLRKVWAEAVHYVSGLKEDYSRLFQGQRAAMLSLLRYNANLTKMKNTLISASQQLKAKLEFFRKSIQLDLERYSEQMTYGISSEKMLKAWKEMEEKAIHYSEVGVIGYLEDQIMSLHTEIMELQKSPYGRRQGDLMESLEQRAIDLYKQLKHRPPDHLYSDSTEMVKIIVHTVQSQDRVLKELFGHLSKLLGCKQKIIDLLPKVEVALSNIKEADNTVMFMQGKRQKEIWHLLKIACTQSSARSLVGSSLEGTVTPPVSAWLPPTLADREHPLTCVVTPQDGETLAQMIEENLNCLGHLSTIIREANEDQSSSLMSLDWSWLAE

[7] = biological target: Transcription factor p65 (Mus musculus) (UniProt Q04207); test: Inhibition of P65 phosphorylation in LPS induced mouse RAW264.7 cells preincubated for 2 hrs followed by LPS addition and measured after 24 hrs by Western blot analysis; type: cell-based; conditions: dose 2.5-10 µmol, time 26.0 hrs
[8] = system: Mus musculus; test: Antiinflammatory activity against MC093-induced atopic dermatitis BALB/c mouse model assessed as reduction in epidermal thickness of ear at 50 to 100 mg/kg, IG administered starting from day 4 to 10 after MC093-stimulation by H and E staining assay; type: functional, organism-based; conditions: dose 50-100 mg/kg, time 7.0 day
[9] = system: Mus musculus; test: Antiinflammatory activity against MC093-induced atopic dermatitis BALB/c mouse model assessed as reduction in inflammatory cell infiltration in ear at 50 to 100 mg/kg, IG administered starting from day 4 to 10 after MC093-stimulation by H and E staining assay; type: functional, organism-based; conditions: dose 50-100 mg/kg, time 7.0 day
[10] = system: Mus musculus; test: Antiinflammatory activity against MC093-induced atopic dermatitis BALB/c mouse model assessed as reduction in weight of ear at 50 to 100 mg/kg, IG administered starting from day 4 to 10 after MC093-stimulation; type: functional, organism-based; conditions: dose 50-100 mg/kg, time 7.0 day
[11] = system: Mus musculus; test: Antiinflammatory activity against MC093-induced atopic dermatitis BALB/c mouse model assessed as reduction in number of scratches at 50 to 100 mg/kg, IG administered starting from day 4 to 10 and measured after 30 mins of MC093-stimulation; type: functional, organism-based; conditions: dose 50-100 mg/kg, time 7.0 day
[12] = system: Mus musculus; test: Antiinflammatory activity against MC093-induced atopic dermatitis BALB/c mouse model assessed as reduction in scratching latency at 50 to 100 mg/kg, IG administered starting from day 4 to 10 and measured after 30 mins of MC093-stimulation; type: functional, organism-based; conditions: dose 50-100 mg/kg, time 7.0 day
[13] = system: Mus musculus; test: Antiinflammatory activity against MC093-induced atopic dermatitis BALB/c mouse model assessed as reduction in ear swelling at 50 to 100 mg/kg, IG administered starting from day 4 to 10 after MC093-stimulation; type: functional, organism-based; conditions: dose 50-100 mg/kg, time 7.0 day
[14] = system: Mus musculus; test: Antiinflammatory activity against MC093-induced atopic dermatitis BALB/c mouse model assessed as reduction in IgE level in serum at 50 to 100 mg/kg, IG administered starting from day 4 to 10 after MC093-stimulation; type: functional, organism-based; conditions: dose 50-100 mg/kg, time 7.0 day
[15] = system: Mus musculus; test: Antiinflammatory activity against MC093-induced atopic dermatitis BALB/c mouse model assessed as reduction in TSLP level in serum at 50 to 100 mg/kg, IG administered starting from day 4 to 10 after MC093-stimulation; type: functional, organism-based; conditions: dose 50-100 mg/kg, time 7.0 day
[16] = system: Mus musculus; test: Antiinflammatory activity against MC093-induced atopic dermatitis BALB/c mouse model assessed as reduction in IL-33 level in serum at 50 to 100 mg/kg, IG administered starting from day 4 to 10 after MC093-stimulation; type: functional, organism-based; conditions: dose 50-100 mg/kg, time 7.0 day
[17] = system: Mus musculus; test: Antiinflammatory activity against MC093-induced atopic dermatitis BALB/c mouse model assessed as reduction in IL-4 level in serum at 50 to 100 mg/kg, IG administered starting from day 4 to 10 after MC093-stimulation; type: functional, organism-based; conditions: dose 50-100 mg/kg, time 7.0 day
[18] = system: Mus musculus; test: Antiinflammatory activity against MC093-induced atopic dermatitis BALB/c mouse model assessed as reduction in IL-5 level in serum at 50 to 100 mg/kg, IG administered starting from day 4 to 10 after MC093-stimulation; type: functional, organism-based; conditions: dose 50-100 mg/kg, time 7.0 day
[19] = system: Mus musculus; test: Antiinflammatory activity against MC093-induced atopic dermatitis BALB/c mouse model assessed as reduction in IL-13 level in serum at 50 to 100 mg/kg, IG administered starting from day 4 to 10 after MC093-stimulation; type: functional, organism-based; conditions: dose 50-100 mg/kg, time 7.0 day
[20] = system: Mus musculus; test: Antiinflammatory activity against MC093-induced atopic dermatitis BALB/c mouse model assessed as reduction in HIS level in serum at 50 to 100 mg/kg, IG administered starting from day 4 to 10 after MC093-stimulation; type: functional, organism-based; conditions: dose 50-100 mg/kg, time 7.0 day
[21] = system: Mus musculus; test: In vivo inhibition of MAPK signalling pathway in MC093-induced atopic dermatitis BALB/c mouse model assessed as reduction in p-ERK/ERK ratio in ear skin at 50 to 100 mg/kg, IG administered starting from day 4 to 10 after MC093-stimulation by Western blot analysis; type: functional, organism-based; conditions: dose 50-100 mg/kg, time 7.0 day
[22] = system: Mus musculus; test: In vivo inhibition of MAPK signalling pathway in MC093-induced atopic dermatitis BALB/c mouse model assessed as reduction in p-JNK/JNK ratio in ear skin at 50 to 100 mg/kg, IG administered starting from day 4 to 10 after MC093-stimulation by Western blot analysis; type: functional, organism-based; conditions: dose 50-100 mg/kg, time 7.0 day
[23] = system: Mus musculus; test: In vivo inhibition of MAPK signalling pathway in MC093-induced atopic dermatitis BALB/c mouse model assessed as reduction in p-P38/P38 ratio in ear skin at 50 to 100 mg/kg, IG administered starting from day 4 to 10 after MC093-stimulation by Western blot analysis; type: functional, organism-based; conditions: dose 50-100 mg/kg, time 7.0 day
[24] = system: Mus musculus; test: In vivo inhibition of NFkappaB signalling pathway in IG dosed MC093-induced atopic dermatitis BALB/c mouse model assessed as reduction in IkappaB-alpha phosphorylation level in ear skin starting from day 4 to 10 after MC093-stimulation by Western blot analysis; type: functional, organism-based; conditions: dose 50-100 mg/kg, time 7.0 day
[25] = system: Mus musculus; test: In vivo inhibition of NFkappaB signalling pathway in IG dosed MC093-induced atopic dermatitis BALB/c mouse model assessed as reduction in P65 phosphorylation level in ear skin starting from day 4 to 10 after MC093-stimulation by Western blot analysis; type: functional, organism-based; conditions: dose 50-100 mg/kg, time 7.0 day
[26] = system: Mus musculus; test: In vivo inhibition of […] signalling pathway in MC093-induced atopic dermatitis BALB/c mouse model assessed as reduction in IkappaB-alpha phosphorylation level in ear skin at 50 to 100 mg/kg, IG administered starting from day 4 to 10 after MC093-stimulation by immunohistochemistry analysis; type: functional, organism-based; conditions: dose 50-100 mg/kg, time 7.0 day
[27] = system: Mus musculus; test: In vivo inhibition of […] signalling pathway in MC093-induced atopic dermatitis BALB/c mouse model assessed as reduction in P65 phosphorylation level in ear skin at 50 to 100 mg/kg, IG administered starting from day 4 to 10 after MC093-stimulation by immunohistochemistry analysis; type: functional, organism-based; conditions: dose 50-100 mg/kg, time 7.0 day
[28] = system: Mus musculus; test: Antiinflammatory activity against MC093-induced atopic dermatitis BALB/c mouse model assessed as reduction in epidermal thickness of ear administered starting from day 4 to 10 after MC093-stimulation by H and E staining assay; type: functional, organism-based
[29] = system: Mus musculus; test: Antiinflammatory activity against MC093-induced atopic dermatitis BALB/c mouse model assessed as reduction in inflammatory cell infiltration in ear administered starting from day 4 to 10 after MC093-stimulation by H and E staining assay; type: functional, organism-based

Transcription factor p65 (Mus musculus), sequence (Q04207 whole entry): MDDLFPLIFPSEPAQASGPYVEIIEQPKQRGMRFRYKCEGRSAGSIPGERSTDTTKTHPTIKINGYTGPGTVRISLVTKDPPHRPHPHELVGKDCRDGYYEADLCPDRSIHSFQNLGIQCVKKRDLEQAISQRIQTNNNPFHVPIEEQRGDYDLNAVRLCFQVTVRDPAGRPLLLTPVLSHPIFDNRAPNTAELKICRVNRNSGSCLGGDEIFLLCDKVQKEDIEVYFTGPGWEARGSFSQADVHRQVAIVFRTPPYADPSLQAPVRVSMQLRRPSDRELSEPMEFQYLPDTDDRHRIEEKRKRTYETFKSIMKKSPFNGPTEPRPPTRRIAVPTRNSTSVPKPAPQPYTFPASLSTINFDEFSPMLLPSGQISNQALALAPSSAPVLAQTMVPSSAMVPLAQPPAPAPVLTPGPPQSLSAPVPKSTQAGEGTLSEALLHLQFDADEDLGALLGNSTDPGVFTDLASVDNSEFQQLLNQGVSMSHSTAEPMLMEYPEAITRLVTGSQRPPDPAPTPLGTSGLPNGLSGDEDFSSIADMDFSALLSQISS

## C=C1CC[C@H]2C(=C)CC[C@H]3C(CNCCNCc4cc([N+](=O)[O-])ccc4O)C(=O)O[C@@H]3[C@@H]12 (stereo partly specified)
[1]
  inhibition at 20 µM: 68.4%
[2]
  cytotoxicity at 20 µM: 24.7%
[3]
  pIC50: 4.99
[4]
  pIC50: < 4.40

## C=C1CC[C@H]2C(=C)CC[C@H]3C(CNCCNCc4cc(Br)ccc4O)C(=O)O[C@@H]3[C@@H]12 (stereo partly specified)
[1]
  inhibition at 20 µM: 23.5%
[2]
  cytotoxicity at 20 µM: -2.07%

## C=C1CC[C@H]2C(=C)CC[C@H]3C(CN(CCNS(=O)(=O)c4ccc(F)cc4)S(=O)(=O)c4ccc(F)cc4)C(=O)O[C@@H]3[C@@H]12 (stereo partly specified)
[1]
  inhibition at 20 µM: 75.1%
[2]
  cytotoxicity at 20 µM: 9.81%
[3]
  pIC50: 4.82
[4]
  pIC50: < 4.40

## C=C1CC[C@H]2C(=C)CC[C@H]3C(CN(CCNS(=O)(=O)c4ccc(OC(F)(F)F)cc4)S(=O)(=O)c4ccc(OC(F)(F)F)cc4)C(=O)O[C@@H]3[C@@H]12 (stereo partly specified)
[1]
  inhibition at 20 µM: 84%
[2]
  cytotoxicity at 20 µM: 13.6%
[3]
  pIC50: 5.37
[4]
  pIC50: < 4.40

## C=C1CC[C@H]2C(=C)CC[C@H]3C(CNCCNCc4cc(Cl)ccc4O)C(=O)O[C@@H]3[C@@H]12 (stereo partly specified)
[1]
  inhibition at 20 µM: 34.1%
[2]
  cytotoxicity at 20 µM: 16.7%

## C=C1CC[C@H]2C(=C)CC[C@H]3C(CN(CCNS(=O)(=O)c4ccc(C(F)(F)F)cc4)S(=O)(=O)c4ccc(C(F)(F)F)cc4)C(=O)O[C@@H]3[C@@H]12 (stereo partly specified)
[1]
  inhibition at 20 µM: 85.1%
[2]
  cytotoxicity at 20 µM: -6.84%
[3]
  pIC50: 5.68
[4]
  pIC50: < 4.40
[5]
  inhibition: Dose-Dependent Effect
[6]
  inhibition: Dose-Dependent Effect
[7]
  inhibition: Dose-Dependent Effect
[8]
  Activity: Active
[9]
  Activity: Active
[10]
  Activity: Active
[11]
  Activity: Active
[12]
  Activity: Active
[13]
  Activity: Active
[14]
  Activity: Active
[15]
  Activity: Active
[16]
  Activity: Active
[17]
  Activity: Active
[18]
  Activity: Active
[19]
  Activity: Active
[20]
  Activity: inactive
[21]
  inhibition: inactive
[22]
  inhibition: inactive
[23]
  inhibition: inactive
[24]
  inhibition: Dose-Dependent Effect
[25]
  inhibition: Dose-Dependent Effect
[26]
  inhibition: Active
[27]
  inhibition: Active

## C[C@@H]1C[C@H]2[C@@H]3CCC4=CC(=O)C=C[C@]4(C)[C@@]3(F)[C@@H](O)C[C@]2(C)[C@@]1(O)C(=O)CO [DEXAMETHASONE]
[3]
  pIC50: 4.96
[4]
  pIC50: < 4.40
[28]
  Activity: Active
[29]
  Activity: Active

## C=C1CC[C@H]2C(=C)CC[C@H]3C(CNCCNS(=O)(=O)C4CC4)C(=O)O[C@@H]3[C@@H]12 (stereo partly specified)
[1]
  inhibition at 20 µM: 85.4%
[2]
  cytotoxicity at 20 µM: 12.2%
[3]
  pIC50: 5.29
[4]
  pIC50: < 4.40
